Experimental findings from patent US20090232838A1, “Ligands of melanocortin receptors” (priority 2005, published 2009) are described below.

Read-outs that look alike come from different tables or passages of the source.

Format in all cases: cell-based
One test addresses T1, hMC1-R (Homo sapiens, UniProt Q01726).
T1 construct: expressed in transfected cells; host or cells: CHO-K1
Put plainly: cyclic AMP bioassay, hMC1-R.

The target in the next test is T2, hMC3-R (Homo sapiens, UniProt P41968).
T2 construct: expressed in transfected cells; host or cells: CHO-K1
In words: cyclic AMP bioassay, hMC3-R.

Another test has as its target T3, hMC4-R (Homo sapiens, UniProt P32245).
T3 construct: expressed in transfected cells; host or cells: CHO-K1
Put plainly: cyclic AMP bioassay, hMC4-R.

For a further test, the target named is T4, hMC5-R (Homo sapiens, UniProt P33032).
T4 construct: expressed in transfected cells; host or cells: CHO-K1
Put plainly: cyclic AMP bioassay, hMC5-R.

Where [1] appears, read: Table 3A, cAMP in CHO-K1 cells, agonist, read-out: EC50 hMC1-R.
[2] abbreviates: Table 3A, cAMP in CHO-K1 cells, antagonist potency by Schild analysis, read-out: Kb hMC3-R.
Setting [3] is: Table 3A, cAMP in CHO-K1 cells, antagonist potency by Schild analysis, read-out: Kb hMC4-R.
Setting [4] is: Table 3A, cAMP in CHO-K1 cells, agonist, read-out: EC50 hMC5-R.

T3 sequence (P32245 whole entry): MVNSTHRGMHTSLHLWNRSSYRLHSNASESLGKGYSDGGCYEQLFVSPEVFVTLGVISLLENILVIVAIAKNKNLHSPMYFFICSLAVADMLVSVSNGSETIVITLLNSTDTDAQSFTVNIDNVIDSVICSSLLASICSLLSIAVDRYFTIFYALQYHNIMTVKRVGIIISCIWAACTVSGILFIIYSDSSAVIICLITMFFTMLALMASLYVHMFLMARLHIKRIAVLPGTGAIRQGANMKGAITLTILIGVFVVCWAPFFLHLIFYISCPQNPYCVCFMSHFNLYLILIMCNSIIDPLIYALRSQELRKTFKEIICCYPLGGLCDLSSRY
T1 sequence (Q01726 whole entry): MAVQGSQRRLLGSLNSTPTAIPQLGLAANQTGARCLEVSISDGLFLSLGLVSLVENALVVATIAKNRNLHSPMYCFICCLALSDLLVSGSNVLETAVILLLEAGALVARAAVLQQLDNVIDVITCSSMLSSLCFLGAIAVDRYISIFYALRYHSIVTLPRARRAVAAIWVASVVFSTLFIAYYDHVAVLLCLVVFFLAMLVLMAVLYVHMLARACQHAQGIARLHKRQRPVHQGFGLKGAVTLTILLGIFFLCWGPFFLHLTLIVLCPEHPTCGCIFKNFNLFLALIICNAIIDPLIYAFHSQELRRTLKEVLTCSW
T4 sequence (P33032 whole entry): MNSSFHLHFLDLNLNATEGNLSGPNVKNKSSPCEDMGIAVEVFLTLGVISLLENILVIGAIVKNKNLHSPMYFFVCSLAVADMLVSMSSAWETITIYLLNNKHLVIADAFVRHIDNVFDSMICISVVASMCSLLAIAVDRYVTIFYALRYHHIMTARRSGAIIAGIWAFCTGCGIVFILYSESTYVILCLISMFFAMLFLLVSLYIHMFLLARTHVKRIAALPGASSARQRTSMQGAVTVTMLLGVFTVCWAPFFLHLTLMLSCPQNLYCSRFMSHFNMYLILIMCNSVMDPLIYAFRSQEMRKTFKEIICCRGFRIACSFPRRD
T2 sequence (P41968 whole entry): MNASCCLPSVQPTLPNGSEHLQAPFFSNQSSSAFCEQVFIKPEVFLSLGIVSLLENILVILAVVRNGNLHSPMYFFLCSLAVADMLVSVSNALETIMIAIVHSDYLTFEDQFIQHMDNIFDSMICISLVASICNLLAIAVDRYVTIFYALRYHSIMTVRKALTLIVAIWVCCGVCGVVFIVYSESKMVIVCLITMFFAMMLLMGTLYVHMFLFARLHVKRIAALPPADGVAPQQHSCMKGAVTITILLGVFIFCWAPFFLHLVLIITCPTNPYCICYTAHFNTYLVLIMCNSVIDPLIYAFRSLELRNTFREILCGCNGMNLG
Procedure for hMC1-R: (§1) Intracellular cyclic AMP (cAMP) levels were determined by an electrochemiluminescence (ECL) assay (Meso Scale Discovery®, Gaithersburg, Md.; referred to hereinafter as MSD). […] Transgenic CHO-K1 cells stably expressing hMC receptor subtypes 1, 3, 4 or 5 were dispensed at a density of approximately 7,000 cells/well in 384-well Multi-Arrays plates (MSD) containing integrated carbon electrodes and coated with anti-CAMP antibody. Increasing concentrations of the test compounds were added and the cells were incubated for approximately 40 minutes at approximately 37° C. […] At the end of the second incubation period read buffer (Tris-buffered solution containing an ECL co-reactant and Triton X-100 at ph 7.8) was added and the cAMP levels in the cell lysates were immediately determined by ECL detection with a Sector Imager 6000 Reader® (MSD). Data were analyzed using a computer-assisted non-linear regression analysis (XL fit; IDBS) and reported as either an EC50 value or a Kb value.
(§2) The Kb value reflects the potency of an antagonist and is determined by Schild analysis. In brief, concentration-response curves of an agonist are carried out in the presence of increasing concentrations of an antagonist. […] It is calculated by extrapolating the line on a Schild plot to zero on the y-axis.
Procedure for hMC3-R: as §1, §2
Procedure for hMC5-R: as §1, §2

Broadly, the EC50 is the concentration needed to bring the measured effect to its halfway point. Regarding `CCCC[C@H](NC(C)=O)C(=O)N[C@H]1CSSC[C@@H](C(=O)NCCC(=O)N[C@@H](Cc2ccc(O)cc2)C(=O)NCC(=O)N[C@@H](CCCNC(=N)N)C(=O)N[C@@H](CCCCN)C(=O)N[C@@H](CCCNC(=N)N)C(=O)N[C@@H](CCCNC(=N)N)C(=O)N[C@@H](CCCNC(=N)N)C(=O)N[C@@H](CCC(N)=O)C(=O)N[C@@H](CCCNC(=N)N)C(=O)N[C@@H](CCCNC(=N)N)C(=O)N[C@@H](CCCNC(=N)N)C(N)=O)NC(=O)[C@H](Cc2c[nH]c3ccccc23)NC(=O)[C@H](CCCNC(=N)N)NC(=O)[C@@H](Cc2ccccc2)NC(=O)[C@H](Cc2c[nH]cn2)NC(=O)[C@@H](C)NC1=O`, the EC50 at hMC1-R was found to be 7.57 nM; on hMC3-R it was 4.18 nM; on hMC4-R it was 0.6 nM; on hMC5-R, 1790 nM.

Turning to `CCCC[C@H](NC(C)=O)C(=O)N[C@H]1CSSC[C@@H](C(=O)NCCC(=O)N[C@@H](Cc2ccc(O)cc2)C(=O)NCC(=O)N[C@@H](CCCNC(=N)N)C(=O)N[C@@H](CCCNC(=N)N)C(=O)N[C@@H](CCCCN)C(=O)N[C@@H](CCCNC(=N)N)C(=O)N[C@@H](CCCNC(=N)N)C(=O)N[C@@H](CCC(N)=O)C(=O)N[C@@H](CCCNC(=N)N)C(=O)N[C@@H](CCCNC(=N)N)C(=O)N[C@@H](CCCNC(=N)N)C(N)=O)NC(=O)[C@H](Cc2c[nH]c3ccccc23)NC(=O)[C@H](CCCNC(=N)N)NC(=O)[C@@H](Cc2ccccc2)NC(=O)[C@H](Cc2c[nH]cn2)NC(=O)[C@@H](C)NC1=O`, the EC50 at hMC1-R was 5.66 nM; on hMC3-R, 4.7 nM; at hMC4-R, 0.422 nM; on hMC5-R it was 1550 nM.

With `CCCC[C@H](NC(C)=O)C(=O)N[C@H]1CSSC[C@@H](C(=O)NCCC(=O)NCC(=O)N[C@@H](CCCNC(=N)N)C(=O)N[C@@H](CCCNC(=N)N)C(=O)N[C@@H](CCCCN)C(=O)N[C@@H](CCCNC(=N)N)C(=O)N[C@@H](CCCNC(=N)N)C(=O)N[C@@H](CCC(N)=O)C(=O)N[C@@H](CCCNC(=N)N)C(=O)N[C@@H](CCCNC(=N)N)C(=O)N[C@@H](CCCNC(=N)N)C(N)=O)NC(=O)[C@H](Cc2c[nH]c3ccccc23)NC(=O)[C@H](CCCNC(=N)N)NC(=O)[C@@H](Cc2ccccc2)NC(=O)[C@H](Cc2c[nH]cn2)NC(=O)[C@@H](C)NC1=O`, the EC50 was 2.36 nM at hMC1-R, 2.74 nM on hMC3-R, 0.26 nM at hMC4-R and 500 nM on hMC5-R.

On to `CC(=O)N[C@H]1CSSC[C@@H](C(=O)N2CCC[C@H]2C(=O)N2CCC[C@H]2C(=O)N[C@@H](CCCCN)C(=O)N[C@@H](CC(=O)O)C(=O)NCCC(=O)N[C@@H](Cc2ccc(O)cc2)C(=O)NCC(=O)N[C@@H](CCCNC(=N)N)C(=O)N[C@@H](CCCNC(=N)N)C(=O)N[C@@H](CCCCN)C(=O)N[C@@H](CCCNC(=N)N)C(=O)N[C@@H](CCCNC(=N)N)C(=O)N[C@@H](CCC(N)=O)C(=O)N[C@@H](CCCNC(=N)N)C(=O)N[C@@H](CCCNC(=N)N)C(=O)N[C@@H](CCCNC(=N)N)C(N)=O)NC(=O)[C@H](C)NC(=O)[C@H](Cc2cccc3ccccc23)NC(=O)[C@H](CCCNC(=N)N)NC(=O)[C@@H](Cc2ccc3ccccc3c2)NC(=O)[C@H](Cc2c[nH]cn2)NC(=O)[C@H](CCC(=O)O)NC1=O`, for which the EC50 amounted to 29 nM at hMC1-R and 173 nM at hMC5-R. Moreover, the Kb at hMC3-R worked out at 22.6 nM; at hMC4-R, 16.7 nM.

Take `CC(=O)N[C@H]1CSSC[C@@H](C(=O)N2CCC[C@H]2C(=O)N2CCC[C@H]2C(=O)N[C@@H](CCCCN)C(=O)N[C@@H](CC(=O)O)C(=O)NCCC(=O)NCC(=O)N[C@@H](CCCNC(=N)N)C(=O)N[C@@H](CCCCN)C(=O)N[C@@H](CCCNC(=N)N)C(=O)N[C@@H](CCCNC(=N)N)C(=O)N[C@@H](CCCNC(=N)N)C(=O)N[C@@H](CCC(N)=O)C(=O)N[C@@H](CCCNC(=N)N)C(=O)N[C@@H](CCCNC(=N)N)C(=O)N[C@@H](CCCNC(=N)N)C(N)=O)NC(=O)[C@H](C)NC(=O)[C@H](Cc2cccc3ccccc23)NC(=O)[C@H](CCCNC(=N)N)NC(=O)[C@@H](Cc2ccc3ccccc3c2)NC(=O)[C@H](Cc2c[nH]cn2)NC(=O)[C@H](CCC(=O)O)NC1=O`: the half-maximal effective concentration (EC50) on hMC1-R came to 45.5 nM; on hMC5-R, 149 nM. For the same compound, the Kb at hMC3-R was found to be 181 nM; on hMC4-R it was 6.35 nM.

In the case of `CC(=O)N[C@H]1CSSC[C@@H](C(=O)N2CCC[C@H]2C(=O)N2CCC[C@H]2C(=O)N[C@@H](CCCCN)C(=O)N[C@@H](CC(=O)O)C(=O)NCCC(=O)N[C@@H](CCCNC(=N)N)C(=O)N[C@@H](CCCCN)C(=O)N[C@@H](CCCNC(=N)N)C(=O)N[C@@H](CCCNC(=N)N)C(=O)N[C@@H](CCCNC(=N)N)C(=O)N[C@@H](CCC(N)=O)C(=O)N[C@@H](CCCNC(=N)N)C(=O)N[C@@H](CCCNC(=N)N)C(=O)N[C@@H](CCCNC(=N)N)C(N)=O)NC(=O)[C@H](C)NC(=O)[C@H](Cc2ccc3ccccc3c2)NC(=O)[C@H](CCCNC(=N)N)NC(=O)[C@@H](Cc2ccc3ccccc3c2)NC(=O)[C@H](Cc2c[nH]cn2)NC(=O)[C@H](CCC(=O)O)NC1=O`, the EC50 at hMC1-R amounted to 23.7 nM; on hMC5-R, 39.7 nM. The Kb on hMC3-R was determined as 9.22 nM; on hMC4-R, 5.87 nM.

Turning to `CC(=O)N[C@H]1CSSC[C@@H](C(=O)N2CCC[C@H]2C(=O)N2CCC[C@H]2C(=O)N[C@@H](CCCCN)C(=O)N[C@@H](CC(=O)O)C(=O)NCCC(=O)N[C@@H](Cc2ccc(O)cc2)C(=O)NCC(=O)N[C@@H](CCCNC(=N)N)C(=O)N[C@@H](CCCCN)C(=O)N[C@@H](CCCNC(=N)N)C(=O)N[C@@H](CCCNC(=N)N)C(=O)N[C@@H](CCCNC(=N)N)C(=O)N[C@@H](CCC(N)=O)C(=O)N[C@@H](CCCNC(=N)N)C(=O)N[C@@H](CCCNC(=N)N)C(=O)N[C@@H](CCCNC(=N)N)C(N)=O)NC(=O)[C@H](C)NC(=O)[C@H](Cc2ccc3ccccc3c2)NC(=O)[C@H](CCCNC(=N)N)NC(=O)[C@@H](Cc2ccc3ccccc3c2)NC(=O)[C@H](Cc2c[nH]cn2)NC(=O)[C@H](CCC(=O)O)NC1=O`, the results for the half-maximal effective concentration (EC50) on hMC1-R and on hMC5-R were 34.7 nM and 28.2 nM, respectively. The Kb on hMC3-R was 15 nM; at hMC4-R it was 8.68 nM.

As for `CC(=O)N[C@H]1CSSC[C@@H](C(=O)N2CCC[C@H]2C(=O)N2CCC[C@H]2C(=O)N[C@@H](CCCCN)C(=O)N[C@@H](CC(=O)O)C(=O)NCCC(=O)N[C@@H](Cc2ccc(O)cc2)C(=O)NCC(=O)N[C@@H](CCCNC(=N)N)C(=O)N[C@@H](CCCCN)C(=O)N[C@@H](CCCCN)C(=O)N[C@@H](CCC(N)=O)C(=O)N[C@@H](CCCNC(=N)N)C(=O)N[C@@H](CCCNC(=N)N)C(=O)N[C@@H](CCCNC(=N)N)C(=O)N[C@@H](CCCNC(=N)N)C(=O)N[C@@H](CCCNC(=N)N)C(N)=O)NC(=O)[C@H](C)NC(=O)[C@H](Cc2c[nH]c3ccccc23)NC(=O)[C@H](CCCNC(=N)N)NC(=O)[C@@H](Cc2ccc3ccccc3c2)NC(=O)[C@H](Cc2c[nH]cn2)NC(=O)[C@H](CCC(=O)O)NC1=O`, the EC50 stood at 6.7 nM at hMC1-R (setting [1]) and 46.2 nM at hMC5-R (setting [4]). The Kb at hMC3-R (setting [2]) came to 9.38 nM; at hMC4-R (setting [3]) it was 11.7 nM.

With `CC(=O)N[C@H]1CSSC[C@@H](C(=O)N2CCC[C@H]2C(=O)N2CCC[C@H]2C(=O)N[C@@H](CCCCN)C(=O)N[C@@H](CC(=O)O)C(=O)NCCC(=O)N[C@@H](Cc2ccc(O)cc2)C(=O)NCC(=O)N[C@@H](CCCNC(=N)N)C(=O)N[C@@H](CCCCN)C(=O)N[C@@H](CCCCN)C(=O)N[C@@H](CCCNC(=N)N)C(=O)N[C@@H](CCCNC(=N)N)C(=O)N[C@@H](CCCNC(=N)N)C(=O)N[C@@H](CCCNC(=N)N)C(=O)N[C@@H](CCC(N)=O)C(=O)N[C@@H](CCCNC(=N)N)C(N)=O)NC(=O)[C@H](C)NC(=O)[C@H](Cc2c[nH]c3ccccc23)NC(=O)[C@H](CCCNC(=N)N)NC(=O)[C@@H](Cc2ccc3ccccc3c2)NC(=O)[C@H](Cc2c[nH]cn2)NC(=O)[C@H](CCC(=O)O)NC1=O`, the concentration giving a half-maximal response (EC50) at hMC1-R (setting [1]) was 16.9 nM; on hMC5-R (setting [4]), 58.9 nM. For the same compound, the results for the Kb at hMC3-R (setting [2]) and at hMC4-R (setting [3]) were 36 nM and 7.12 nM, respectively.

On to `CC(=O)N[C@H]1CSSC[C@@H](C(=O)N2CCC[C@H]2C(=O)N2CCC[C@H]2C(=O)N[C@@H](CCCCN)C(=O)N[C@@H](CC(=O)O)C(=O)NCCC(=O)N[C@@H](Cc2ccc(O)cc2)C(=O)NCC(=O)N[C@@H](CCCNC(=N)N)C(=O)N[C@@H](CCCCN)C(=O)N[C@@H](CCC(N)=O)C(=O)N[C@@H](CCCCN)C(=O)N[C@@H](CCCNC(=N)N)C(=O)N[C@@H](CCCNC(=N)N)C(=O)N[C@@H](CCCNC(=N)N)C(=O)N[C@@H](CCCNC(=N)N)C(=O)N[C@@H](CCCNC(=N)N)C(N)=O)NC(=O)[C@H](C)NC(=O)[C@H](Cc2c[nH]c3ccccc23)NC(=O)[C@H](CCCNC(=N)N)NC(=O)[C@@H](Cc2ccc3ccccc3c2)NC(=O)[C@H](Cc2c[nH]cn2)NC(=O)[C@H](CCC(=O)O)NC1=O`, for which the EC50 on hMC1-R (setting [1]) stood at 7.9 nM; at hMC5-R (setting [4]) it was 62.4 nM. For the same compound, the Kb at hMC3-R (setting [2]) was 41.7 nM; at hMC4-R (setting [3]), 10.9 nM.

As to `CC(=O)N[C@H]1CSSC[C@@H](C(=O)N2CCC[C@H]2C(=O)N2CCC[C@H]2C(=O)N[C@@H](CCCCN)C(=O)N[C@@H](CC(=O)O)C(=O)NCCC(=O)N[C@@H](Cc2ccc(O)cc2)C(=O)NCC(=O)N[C@@H](CCCNC(=N)N)C(=O)N[C@@H](CCCCN)C(=O)N[C@@H](CCCCN)C(=O)N[C@@H](CCCNC(=N)N)C(=O)N[C@@H](CCCNC(=N)N)C(=O)N[C@@H](CCCNC(=N)N)C(=O)N[C@@H](CCC(N)=O)C(=O)N[C@@H](CCCNC(=N)N)C(=O)N[C@@H](CCCNC(=N)N)C(N)=O)NC(=O)[C@H](C)NC(=O)[C@H](Cc2c[nH]c3ccccc23)NC(=O)[C@H](CCCNC(=N)N)NC(=O)[C@@H](Cc2ccc3ccccc3c2)NC(=O)[C@H](Cc2c[nH]cn2)NC(=O)[C@H](CCC(=O)O)NC1=O`, the EC50 turned out to be 16.4 nM on hMC1-R (setting [1]) and 44.2 nM on hMC5-R (setting [4]). Also, the figures for the Kb at hMC3-R (setting [2]) and on hMC4-R (setting [3]) were 20.8 nM and 7.31 nM, respectively.
